Assay results as given in patent publication US20260248972A1, “DUAL RECEPTOR TARGETING RADIOLIGANDS AND USES THEREOF RELATED APPLICATIONS” (priority 2022, published 2026).
pIC50: −log10 of the molar value. Like-named read-outs stand apart in the source and are kept apart here.

Assays:
CCK2R = biological target: T1, CCK2R (Rattus norvegicus, UniProt P30553); experiment: Competitive cell-binding assay on AR42J cells with 125I-C3 as competitive ligand; conditions: for pIC50: AR42J cells, 125I-C3 competitive ligand, 37° C. 1 h, read-out: CCK2R/IC50
T1 construct: host or cells: AR42J cells
T1 sequence (P30553 1-452): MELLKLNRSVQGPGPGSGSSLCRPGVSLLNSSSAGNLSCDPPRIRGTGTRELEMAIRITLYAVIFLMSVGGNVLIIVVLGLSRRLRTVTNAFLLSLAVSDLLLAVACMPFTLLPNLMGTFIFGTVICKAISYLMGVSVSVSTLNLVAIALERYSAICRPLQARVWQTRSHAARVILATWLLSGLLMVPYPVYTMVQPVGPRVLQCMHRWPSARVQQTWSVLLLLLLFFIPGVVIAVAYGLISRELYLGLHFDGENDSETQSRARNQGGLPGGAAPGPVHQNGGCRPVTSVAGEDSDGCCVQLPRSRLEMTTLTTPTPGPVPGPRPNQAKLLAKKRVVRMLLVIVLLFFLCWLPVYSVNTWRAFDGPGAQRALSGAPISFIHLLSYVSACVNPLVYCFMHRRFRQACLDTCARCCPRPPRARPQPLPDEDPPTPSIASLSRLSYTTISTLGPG
Description: (§1) AR42J cells (ATCC) were maintained in RPMI-1640 medium (Gibco) supplemented with 15% fetal bovine serum (Gibco) and 1% penicillin-streptomycin (BI) at 37° C. in a humidified incubator with 5% CO2. The culture medium was replaced with fresh medium every 2-3 days. Experiments were performed with cells at 70-80% confluence.
(§2) Binding Affinity Tested by Using ^125I-Labeled Competitive Ligands.
(§3) The binding affinities of test compounds were determined by a competitive cell-binding assay using ^125I-C1 and ^125I-C3 as the competitive ligand. The suspended AR42J cells at a density of 1~3×10^6 cells/mL in binding buffer (RPMI-1640 medium supplemented with 0.25% bovine serum albumin) were transferred to a MultiScreen-DV Filter Plate (Millipore) with 100 μL per well except the blank group where the binding buffer was used instead. The cells were then incubated with ^125I-C1 and ^125I-C3 (0.02 μCi/well) in the presence of increasing concentrations (0-10000 nM) of test compounds at 37° C. for 1 h (n=3). The final volume in each well was maintained at 200 μL and insufficient volume was adjusted by the binding buffer. After the 1 h incubation, unbound ^125I-competitive ligands were removed by filtration using a Multiscreen vacuum manifold (Millipore) followed by rinses with the binding buffer (3 times). The filters were collected, and their radioactivity were individually measured by γ counter (2480 WIZARD2, PerkinElmer). The best-fit IC50value (inhibitory concentration when 50% of the bound ^125I-C1 and ^125l I-C3 on cells were displaced) of test compounds were calculated by fitting the data with nonlinear regression using GraphPad Prism 8.0.1.

SSTR2 = biological target: T2, SSTR2 (Rattus norvegicus, UniProt P30680); experiment: Competitive cell-binding assay on AR42J cells with 125I-C1 as competitive ligand; conditions: for pIC50: AR42J cells, 125I-C1 competitive ligand, 37° C. 1 h, read-out: SSTR2/IC50
T2 construct: host or cells: AR42J cells
T2 sequence (P30680 whole entry): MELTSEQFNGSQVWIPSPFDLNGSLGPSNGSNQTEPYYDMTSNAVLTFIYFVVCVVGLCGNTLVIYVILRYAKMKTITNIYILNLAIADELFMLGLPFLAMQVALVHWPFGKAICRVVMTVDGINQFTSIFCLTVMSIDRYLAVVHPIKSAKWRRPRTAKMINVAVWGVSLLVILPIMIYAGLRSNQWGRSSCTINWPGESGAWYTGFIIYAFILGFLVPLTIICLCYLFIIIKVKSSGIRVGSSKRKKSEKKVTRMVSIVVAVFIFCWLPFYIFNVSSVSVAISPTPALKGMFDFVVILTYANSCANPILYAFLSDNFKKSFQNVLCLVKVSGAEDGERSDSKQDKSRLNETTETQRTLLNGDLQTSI
Description: as §1, §2, §3

Row | Structure (SMILES) | pIC50 (CCK2R) | Relative Binding Affinity CCK2R (CCK2R; based on mean IC50, C-2 = 1.00) | Relative Binding Affinity SSTR2 (SSTR2; based on mean IC50, C-1 = 1.00) | pIC50 (SSTR2) | Relative Binding Affinity CCK2R (CCK2R) | Relative Binding Affinity SSTR2 (SSTR2)
1 | CCCC[C@H](NC(=O)[C@H](Cc1c[nH]c2ccccc12)NC(=O)CNC(=O)[C@H](Cc1ccc(O)cc1)NC(=O)[C@H](C)NC(=O)[C@@H](CCC(=O)O)NC(=O)[C@@H](CCC(=O)O)NC(=O)[C@@H](CCC(=O)O)NC(=O)[C@@H](CCC(=O)O)NC(=O)[C@@H](CCC(=O)O)NC(=O)[C@@H](CCC(=O)O)NC(=O)CN1CCN(CC(=O)O)CCN(CC(=O)O)CCN(CC(=O)O)CC1)C(=O)N[C@@H](CC(=O)O)C(=O)N[C@@H](Cc1ccccc1)C(N)=O [Compound C-2, DOTA-e-e-e-e-e-e-AYGW-Nle-DF-NH2, reference compound] | 7.77 | 1.00 | <0.001 |  |  | 
2 | C[C@@H](O)[C@@H]1NC(=O)[C@H](CCCCN)NC(=O)[C@@H](Cc2c[nH]c3ccccc23)NC(=O)[C@H](Cc2ccc(O)cc2)NC(=O)[C@@H](NC(=O)[C@@H](Cc2ccccc2)NC(=O)COCCOCCNC(=O)[C@H](CCCCNC(=O)[C@H](CCC(=O)O)NC(=O)c2cccc(NC(=O)N[C@@H]3CN(C4CCCCC4)c4ccccc4N(CC(=O)C(C)(C)C)C3=O)c2)NC(=O)CN2CCN(CC(=O)O)CCN(CC(=O)O)CCN(CC(=O)O)CC2)CSSC[C@@H](C(=O)N[C@H](CO)[C@@H](C)O)NC1=O [Compound I-5, DOTA-K(-E-Z360)-OEG-f[CYwKTC]-Thr(ol)] |  | 216 | 0.10 |  |  | 
3 | C[C@@H](O)[C@H](NC(=O)[C@@H]1CSSC[C@H](NC(=O)[C@@H](Cc2ccccc2)NC(=O)[C@H](CCCCNC(=O)[C@H](CCC(=O)O)NC(=O)c2cccc(NC(=O)N[C@@H]3CN(C4CCCCC4)c4ccccc4N(CC(=O)C(C)(C)C)C3=O)c2)NC(=O)CN2CCN(CC(=O)O)CCN(CC(=O)O)CCN(CC(=O)O)CC2)C(=O)N[C@@H](Cc2ccc(O)cc2)C(=O)N[C@H](Cc2c[nH]c3ccccc23)C(=O)N[C@@H](CCCCN)C(=O)N[C@@H]([C@@H](C)O)C(=O)N1)C(N)=O [Compound I-4, DOTA-K(-E-Z360)-f[CYwKTC]T-NH2] |  | 53.1 | 0.90 |  |  | 
4 | C[C@@H](O)[C@H](NC(=O)[C@@H]1CSSC[C@H](NC(=O)[C@@H](Cc2ccccc2)NC(=O)COCCOCCNC(=O)[C@H](CCCCNC(=O)CC[C@H](NC(=O)CNC(=O)c2cccc(NC(=O)N[C@@H]3CN(C4CCCCC4)c4ccccc4N(CC(=O)C(C)(C)C)C3=O)c2)C(=O)O)NC(=O)CC[C@H](NC(=O)CC[C@H](NC(=O)CN2CCN(CC(=O)O)CCN(CC(=O)O)CCN(CC(=O)O)CC2)C(=O)O)C(=O)O)C(=O)N[C@@H](Cc2ccc(O)cc2)C(=O)N[C@H](Cc2c[nH]c3ccccc23)C(=O)N[C@@H](CCCCN)C(=O)N[C@@H]([C@@H](C)O)C(=O)N1)C(=O)O [Compound I-10, DOTA-gE-gE-K(-gE-G-Z360)-OEG-f[CYwKTC]T-OH] |  | 275 | 0.78 |  |  | 
5 | C[C@@H](O)[C@H](NC(=O)[C@@H]1CSSC[C@H](NC(=O)[C@@H](Cc2ccccc2)NC(=O)COCCOCCNC(=O)[C@H](CCCCNC(=O)CC[C@H](NC(=O)CNC(=O)c2cccc(NC(=O)NC3CN(C4CCCCC4)c4ccccc4N(CC(=O)C(C)(C)C)C3=O)c2)C(=O)O)NC(=O)COCCOCCNC(=O)COCCOCCNC(=O)[C@@H](N)CCCCNC(=O)[C@@H](N)CCCCNC(=O)CN2CCN(CC(=O)O)CCN(CC(=O)O)CCN(CC(=O)O)CC2)C(=O)N[C@@H](Cc2ccc(O)cc2)C(=O)N[C@H](Cc2c[nH]c3ccccc23)C(=O)N[C@@H](CCCCN)C(=O)N[C@@H]([C@@H](C)O)C(=O)N1)C(=O)O (some centres unmarked) [Compound I-65, DOTA-eK-eK-OEG-OEG-K(-gE-G-Z360)-OEG-f[CYwKTC]T-OH] | 8.03 | 1.8 | 20.7 | 9.87 |  | 
6 | C[C@@H](O)[C@H](NC(=O)[C@@H]1CSSC[C@H](NC(=O)[C@@H](Cc2ccccc2)NC(=O)COCCOCCNC(=O)[C@H](CCCCNC(=O)CC[C@H](NC(=O)CNC(=O)c2cccc(NC(=O)N[C@@H]3CN(C4CCCCC4)c4ccccc4N(CC(=O)C(C)(C)C)C3=O)c2)C(=O)O)NC(=O)COCCOCCNC(=O)COCCOCCNC(=O)CC[C@H](NC(=O)CC[C@H](NC(=O)CN2CCN(CC(=O)O)CCN(CC(=O)O)CCN(CC(=O)O)CC2)C(=O)O)C(=O)O)C(=O)N[C@@H](Cc2ccc(O)cc2)C(=O)N[C@H](Cc2c[nH]c3ccccc23)C(=O)N[C@@H](CCCCN)C(=O)N[C@@H]([C@@H](C)O)C(=O)N1)C(=O)O [Compound I-15, DOTA-gE-gE-OEG-OEG-K(-gE-G-Z360)-OEG-f[CYwKTC]T-OH] |  | 71.1 | 0.29 |  |  | 
7 | C[C@@H](O)[C@H](NC(=O)[C@@H]1CSSC[C@H](NC(=O)[C@@H](Cc2ccccc2)NC(=O)COCCOCCNC(=O)[C@H](CCCCNC(=O)COCCOCCNC(=O)c2cccc(NC(=O)N[C@@H]3CN(C4CCCCC4)c4ccccc4N(CC(=O)C(C)(C)C)C3=O)c2)NC(=O)CN2CCN(CC(=O)O)CCN(CC(=O)O)CCN(CC(=O)O)CC2)C(=O)N[C@@H](Cc2ccc(O)cc2)C(=O)N[C@H](Cc2c[nH]c3ccccc23)C(=O)N[C@@H](CCCCN)C(=O)N[C@@H]([C@@H](C)O)C(=O)N1)C(=O)O [Compound I-43, DOTA-K(-OEG-Z360)-OEG-f[CYwKTC]T-OH] |  |  |  |  | 4.0 | 0.61
8 | C[C@@H](O)[C@H](NC(=O)[C@@H]1CSSC[C@H](NC(=O)[C@@H](Cc2ccccc2)NC(=O)COCCOCCNC(=O)[C@H](CCCCNC(=O)CCC(C(=O)O)N2CCN(CC(=O)O)CCN(CC(=O)O)CCN(CC(=O)O)CC2)NC(=O)COCCOCCNC(=O)c2cccc(NC(=O)N[C@@H]3CN(C4CCCCC4)c4ccccc4N(CC(=O)C(C)(C)C)C3=O)c2)C(=O)N[C@@H](Cc2ccc(O)cc2)C(=O)N[C@H](Cc2c[nH]c3ccccc23)C(=O)N[C@@H](CCCCN)C(=O)N[C@@H]([C@@H](C)O)C(=O)N1)C(=O)O (some centres unmarked) [Compound I-31, Z360- OEG- K(DOTAGA)- OEG- f[CYwKTC]T- OH] |  |  |  |  | 8.8 | 4.75
9 | C[C@@H](O)C(NC(=O)[C@@H]1CSSC[C@H](NC(=O)[C@@H](Cc2ccccc2)NC(=O)COCCOCCNC(=O)[C@H](CCCCNC(=O)CC[C@H](NC(=O)CNC(=O)c2cccc(NC(=O)N[C@@H]3CN(C4CCCCC4)c4ccccc4N(CC(=O)C(C)(C)C)C3=O)c2)C(=O)O)NC(=O)COCCOCCNC(=O)CCC(C(=O)O)N2CCN(CC(=O)O)CCN(CC(=O)O)CCN(CC(=O)O)CC2)C(=O)N[C@@H](Cc2ccc(O)cc2)C(=O)N[C@H](Cc2c[nH]c3ccccc23)C(=O)N[C@@H](CCCCN)C(=O)N[C@@H]([C@@H](C)O)C(=O)N1)C(=O)O (stereo in doubt) [Compound I-20, DOTAGA- OEG- K(-gE- G- Z360)- OEG- f[CYwKTC]T- OH] | 8.85 | 12.1 | 3.60 | 9.11 |  | 
10 | C[C@@H](O)[C@H](NC(=O)[C@@H]1CSSC[C@H](NC(=O)[C@@H](Cc2ccccc2)NC(=O)COCCOCCNC(=O)COCCOCCNC(=O)COCCOCCNC(=O)[C@H](CCCCNC(=O)c2cccc(NC(=O)N[C@@H]3CN(C4CCCCC4)c4ccccc4N(CC(=O)C(C)(C)C)C3=O)c2)NC(=O)CN2CCN(CC(=O)O)CCN(CC(=O)O)CCN(CC(=O)O)CC2)C(=O)N[C@@H](Cc2ccc(O)cc2)C(=O)N[C@H](Cc2c[nH]c3ccccc23)C(=O)N[C@@H](CCCCN)C(=O)N[C@@H]([C@@H](C)O)C(=O)N1)C(=O)O [Compound I-45, DOTA-K(Z360)-OEG-OEG-OEG-f[CYwKTC]T-OH] | 8.00 | 1.7 | 1.36 | 8.68 |  | 
11 | C[C@@H](O)[C@H](NC(=O)[C@@H]1CSSC[C@H](NC(=O)[C@@H](Cc2ccccc2)NC(=O)[C@H](CCCCNC(=O)COCCOCCNC(=O)COCCOCCNC(=O)COCCOCCNC(=O)c2cccc(NC(=O)N[C@@H]3CN(C4CCCCC4)c4ccccc4N(CC(=O)C(C)(C)C)C3=O)c2)NC(=O)CN2CCN(CC(=O)O)CCN(CC(=O)O)CCN(CC(=O)O)CC2)C(=O)N[C@@H](Cc2ccc(O)cc2)C(=O)N[C@H](Cc2c[nH]c3ccccc23)C(=O)N[C@@H](CCCCN)C(=O)N[C@@H]([C@@H](C)O)C(=O)N1)C(=O)O [Compound I-46, DOTA-K(-OEG-OEG-OEG-Z360)-f[CYwKTC]T-OH] |  |  |  |  | 50.2 | 0.43
